Results as given in patent EP1157000B1 (Warner-Lambert Company LLC, priority 1999, dated 2001).
Counter-ions that a name gives are not always drawn.

Molecular target: T1, rBCATc (Rattus norvegicus, UniProt P54690)
T1 construct: The supernatant was dialyzed with at least three changes of dialysis buffer; from tissue; host or cells: rat brain (high-speed supernatant of homogenate, dialyzed)
T1 sequence (P54690 1-411): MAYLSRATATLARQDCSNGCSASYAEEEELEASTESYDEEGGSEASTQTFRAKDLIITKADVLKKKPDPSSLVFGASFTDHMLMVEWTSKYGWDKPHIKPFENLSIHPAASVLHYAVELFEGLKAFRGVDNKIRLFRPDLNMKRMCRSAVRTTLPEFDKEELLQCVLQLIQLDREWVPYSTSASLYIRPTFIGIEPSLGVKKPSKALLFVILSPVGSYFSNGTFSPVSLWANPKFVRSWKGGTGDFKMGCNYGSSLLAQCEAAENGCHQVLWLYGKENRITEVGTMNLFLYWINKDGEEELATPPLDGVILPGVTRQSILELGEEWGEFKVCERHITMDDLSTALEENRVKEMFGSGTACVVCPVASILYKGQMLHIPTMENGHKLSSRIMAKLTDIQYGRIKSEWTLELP
Experiment: Assay of BCAT ([14C] L-leucine transamination, rat brain supernatant enzyme)
Assay type: biochemical
Details: 25 µM [14C] L-leucine, 10 mM 2-oxoglutarate, pH 8.3, 10 min, 22 °C; read-out: rBCATc IC50
Procedure: Enzyme preparation: Frozen rat brains were thawed on ice and minced into fine pieces. […] The samples were homogenized in Potters homogenizer (B. Bran Biotech International) at 500 rpm for ten strokes, followed by additional ten strokes at 800 rpm. The homogenates were centrifuged in Beckman J2-M1 centrifuge with rotor JA-20 at 19, 000 rpm for 1 hr. […] The resulting enzyme was stored at -80 °C for further assays.
The solutions for the reaction mixture were made in 10-fold concentrations. After 10 min incubation at room temperature (22 °C), the reaction was stopped by adding 100 µl of 15 mM p-nitrophenyl hydrazine in 2 M HCL. After a few minutes, 1 mL of a toluene-based scintillation liquid (4.5 g of PPO and 0.5 g ofbis-MSB in 1 liter of toluene) was added, the tube was capped and mixed thoroughly with a Vortex mixer. […] Six hundreds µl of organic layer from each tube was placed into scintillation vials, followed by adding 10 ml of scintillation cocktail for counting.

Point of comparison: `NCC1(CC(=O)O)CCCCC1` [Example 22, 1-Aminomethyl-1-cyclohexane-acetic acid], IC50 389 µM. Against it:
- CCC1CCC(CN)(CC(=O)O)CC1 (stereo not drawn) [Example 60, (1-Aminomethyl-4-ethyl-cyclohexyl)-acetic acid; hydrochloric salt] — 30-fold higher, 11500 µM
- O=C(O)CC1(CNCC2CCCC2)CCCCC1 [Example 37, {1-[Cyclopentylmethyl-amino)-methyl]-cyclohexyl}-acetic acid; hydrochloric salt] — 3.1-fold higher, 1190 µM
- CC(=O)NC[C@@]1(CC(=O)O)C[C@H](C)C[C@H](C)C1 [Example 16, 1α,3β,5β-[1-(Acetylamino-methyl)-3,5-dimethyl-cyclohexyl]-acetic acid] — 3.4-fold higher, 1320 µM
- C[C@@H]1C[C@H](C)C[C@](CO)(CC(=O)O)C1 [Example 49, trans-((3R, 5S)-1-Hydroxymethyl-3,5-dimethyl-cyclohexyl-acetic acid; hydrochloride salt] — 4.6-fold lower, 84 µM
- CC(C)NC[C@@]1(CC(=O)O)C[C@H](C)C[C@H](C)C1 [Example 21, 1α,3β,5β-(1-(Isopropylamino-methyl)-3,5-dimethyl-cyclohexyl]-acetic acid hydrochloride salt] — 2.3-fold lower, 169 µM
- NCC1(CC(=O)O)CCCC1 [Example 23, 1-Aminomethyl-1-cyclopentane-acetic acid] — 5.4-fold higher, 2120 µM
- CCNCC1(CC(=O)O)CC(C)CC(C)C1 (stereo not drawn) [Example 10, 1α,3β,5β-(1-Ethylaminomethyl-3,5-dimethyl-cyclohexyl)-acetic acid hydrochloride salt] — 3.2-fold lower, 121 µM
- CCNCC1(CC(=O)O)C[C@H](C)C[C@H](C)C1 (stereo in doubt) [Example 59, ((3R, 5S)-1-Ethylaminomethyl-3,5-dimethyl-cyclohexyl)-acetic acid; hydrochloride salt] — 8.7-fold higher, 3370 µM
- CCCCNCC1(CC(=O)O)CCCCC1 [Example 52, (1-Butylaminomethyl-cyclohexyl)-acetic acid; hydrochloride salt] — 6.5-fold higher, 2520 µM
- C[C@@H]1CCC(CN)(CC(=O)O)C1 (mixture of isomers) [Example 5, (cis/trans)-(3R)-(1-Aminomethyl-3-methyl-cyclopentyl)-acetic acid hydrochloride] — 7.5-fold higher, 2930 µM
- COC(CNCC1(CC(=O)O)CCCCC1)OC [Example 53, {1-[2,2-Dimethoxy-ethylamino)-methyl]-cyclohexyl}-acetic acid; hydrochloride salt] — 8.6-fold higher, 3340 µM
- C[C@@H]1C[C@H](C)C[C@@](CC(=O)O)(CN(C)Cc2ccccc2)C1 [Example 14, 1α,3β,5β-{1-[(Benzyl-methyl-amino)-methyl]-3,5-dimethylcyclohexyl}-acetic acid; hydrochloride salt] — 22-fold higher, 8590 µM
- C[C@@H]1CC(CN)(CC(=O)O)C[C@H]1C (racemic) [Example 4, (±)-(trans)-(1-Aminomethyl-3,4-dimethyl-cyclopentyl)-acetic acid hydrochloride] — 6.5-fold higher, 2510 µM
- O=C(O)CC1(CNCC2CC2)CCCCC1 [Example 29, {1-[(Cyclopropylmethyl-amino)-methyl]-cyclohexyl}-acetic acid hydrochloride salt] — within 1.5-fold, 391 µM
- CCCNCC1(CC(=O)O)C[C@H](C)C[C@H](C)C1 (stereo in doubt) [Example 62, ((3R, 5S)-3,5-Dimethyl-1-propylaminomethyl-cyclohexyl)-acetic acid; hydrochloride salt] — 11-fold higher, 4220 µM
- CC1CC(C)CC(CC(=O)O)(CN(C)C)C1 (stereo not drawn) [Example 12, 1α,3β,5β-(1-Dimethylaminomethyl-3,5-dimethyl-cyclohexyl)-acetic acid; hydrochloride salt] — 3.8-fold higher, 1490 µM
- CC(C)NCC1(CC(=O)O)CCCCC1 [Example 33, [1-(Isopropylamino-methyl)-cyclohexyl]-acetic acid hydrochloride salt] — 2.6-fold higher, 1020 µM
- CNC[C@@]1(CC(=O)O)C[C@H](C)C[C@H](C)C1 [Example 15, 1α,3β,5β-(3,5-Dimethyl-1-methylaminomethyl-cyclohexyl)-acetic acid; hydrochloride salt] — 4.7-fold lower, 82 µM
- O=C(O)CC1(CNCCCC(F)(F)F)CCCCC1 [Example 27, {1-[(4,4,4-Trifluoro-butylamino)-methyl]-cyclohexyl}-acetic acid; hydrochloride salt] — 4-fold higher, 1550 µM
- C[C@@H]1C[C@H](C)CC(CO)(CC(=O)O)C1 (stereo partly drawn) [Example 58, ((3R, 5S)-1-Hydroxymethyl-3,5-dimethyl-cyclohexyl)-acetic acid; sodium salt] — 2.2-fold lower, 179 µM
- CCNCC1(CC(=O)O)CCCCC1 [Example 28, (1-Ethylaminomethyl-cyclohexyl)-acetic acid hydrochloride salt] — 2.1-fold lower, 181 µM
- O=C(O)CC1(CNCc2ccccc2)CCCCC1 [Example 35, [1-(Benzylamino-methyl)-cyclohexyl]-acetic acid hydrochloride salt] — 4.6-fold higher, 1770 µM
- NCC1(CC(=O)O)CCCC1 [Example 24, Sodium salt of 1-aminomethyl-1-cyclopentane-acetic acid] — 2.4-fold higher, 942 µM
- CCCNC[C@@]1(CC(=O)O)C[C@H](C)C[C@H](C)C1 [Example 9, 1α,3β,5β-(3,5-Dimethyl-1-propylaminomethyl-cyclohexyl)-acetic acid; hydrochloride salt] — 3.2-fold lower, 120 µM
- CCCNCC1(CC(=O)O)CCCCC1 [Example 32, (1-Propylaminomethyl-cyclohexyl)-acetic acid hydrochloride salt] — 1.6-fold lower, 243 µM
- O=C(O)CC1(CNC2CCC2)CCCCC1 [Example 20, hydrochloride salt] — within 1.5-fold, 469 µM
- C[C@@H]1CCC[C@](CN)(CC(=O)O)C1 [Example 1, trans-(1R,3R)(1-Aminomethyl-3-methyl-cyclohexyl)-acetic acid hydrochloride] — 2.7-fold lower, 146 µM
- C[C@@H]1C[C@H](C)C[C@](CN)(CC(=O)O)C1 [Example 8, 1α,3β,5β-(1-Aminomethyl-3,5-dimethyl-cyclohexyl)-acetic acid hydrochloride] — 5.3-fold lower, 74 µM
- O=C(O)CC1(CNC2CCCCC2)CCCCC1 [Example 34, (1-Cyclohexylaminomethyl-cyclohexyl)-acetic acid hydrochloride salt] — 8.3-fold higher, 3220 µM
- CC(CO)NCC1(CC(=O)O)CCCCC1 (stereo not drawn) [Example 30, {1-[(2-Hydroxy-1-methyl-ethylamino)-methyl]-cyclohexyl}-acetic acid hydrochloride salt] — 5.8-fold higher, 2250 µM
- O=C(O)CC1(CO)CCCCC1 [Example 25, Sodium salt of 1-(hydroxymethyl)cyclohexane-acetic acid] — 2.3-fold lower, 170 µM
- C[C@@H]1C[C@H](C)CC(CNCC2CCCCC2)(CC(=O)O)C1 (stereo partly drawn) [Example 46, {(3R, 5S)-1-[(Cyclohexylmethyl-amino)-methyl]-3,5-dimethylcyclohexyl}-acetic acid; hydrochloride salt] — 2.9-fold higher, 1130 µM
- C[C@@H]1C[C@H](C)C[C@@](CO)(CC(=O)O)C1 [Example 50, cis-((3R, 5S)-1-Hydroxymethyl-3,5-dimethyl-cyclohexyl-acetic acid; hydrochloride salt] — 2.2-fold higher, 842 µM
- C[C@@H]1C[C@H](C)CC(CC(=O)O)(CC(=O)O)C1 [Example 48, ((3R,5S)-1-Carboxymethyl-3,5-dimethyl-cyclohexyl)-acetic acid] — 22-fold higher, 8530 µM
- C[C@@H]1CC(CN)(CC(=O)O)C[C@H]1C [Example 6, (+)-(trans)-(1-Aminomethyl-3,4-dimethyl-cyclopentyl)-acetic acid hydrochloride] — 6.7-fold higher, 2620 µM
- C[C@@H]1C[C@H](C)CC(CNC2CCCCC2)(CC(=O)O)C1 (stereo partly drawn) [Example 47, ((3R, 5S)-1-Cyclohexylaminomethyl-3,5-dimethyl-cyclohexyl)-acetic acid; hydrochloride salt] — 40-fold higher, 15600 µM
- CC(=O)NCC1(CC(=O)O)CCCCC1 [Example 40, [1-(Acetylamino-methyl)-cyclohexyl]-acetic acid] — 9.8-fold higher, 3800 µM
- CC(CO)NCC1(CC(=O)O)C[C@H](C)C[C@H](C)C1 (stereo partly drawn) [Example 43, {(3R, 5S)-1-[(2-Hydroxy-1-methyl-ethylamino)-methyl]-3,5-dimethyl-cyclohexyl}-acetic acid; hydrochloride salt] — 5.3-fold higher, 2080 µM
- CC(C)CNCC1(CC(=O)O)CCCCC1 [Example 31, [1-(Isobutylamino-methyl)-cyclohexyl]-acetic acid hydrochloride salt] — 2.3-fold higher, 908 µM
- C[C@@H]1C[C@H](C)C[C@](CNCc2ccccc2)(CC(=O)O)C1 [Example 11, 1α,3β,5β-(1-Benzylamino-methyl)-3,5-dimethyl-cyclohexyl]-acetic acid; hydrochloride salt] — 3.6-fold higher, 1390 µM

Same assay, conditions: rBCATc IC50, 25 µM [14C] L-leucine, 10 mM 2-oxoglutarate, pH 8.3, 10 min, 22 °C

In the case of `CC1(C)CCCC(CN)(CC(=O)O)C1` (stereo not drawn) [Example 3, (1-Aminomethyl-3,3-dimethyl-cyclohexyl)-acetic acid hydrochloride], the IC50 is reported as 1660 µM.
